Assay results published in patent US8455450B2, “Methods for obtaining a therapeutically effective amount of hematopoietic precursor cells and long term engraftment thereof” (Biokine Therapeutics Ltd., priority 2006, dated 2013).
Bridge positions count the residues as written; N and C are the ends. Square brackets hold non-standard residues; d marks the D form. Peptide text beside a SMILES is read from it. * marks the point of attachment. 2Nal = N[C@@H](Cc1ccc2ccccc2c1)C(=O)O; Benzoyl(4-F) = O=C(c1ccc(F)cc1)*; Cit = NC(=O)NCCC[C@H](N)C(=O)O

Tested on: granulocytes (GR-1 positive cells)
Test: Granulocyte (GR-1 positive) counts in blood and bone marrow in a chemotherapy model
Format: in vivo, mice
Conditions: CPM 250 mg/kg total i.p.; 4F-benzoyl-TN14003 5 mg/kg s.c., G-CSF 5 μg/mouse
Protocol: Mice received a total dose of 250 mg/kg cyclophosphamide (CPM) by two 0.25 ml intra-peritoneal injections scheduled at day 0 (150 mg/kg) and day 3 (100 mg/kg). Mice were subcutaneously treated with 0.2 ml of 4F-benzoyl-TN14003 (5 mg/kg) at the indicated time points, as detailed in FIG. 13A. Flow cytometery was used to assess the number of cells in the blood and bone marrow (BM), and distinguish between the different populations. Cells were gated according to forward scatter and side scatter to exclude dead cells and to identify granulocytes (GR-1 positive cells).
Mice received a total dose of 250 mg/kg CPM by two 0.25 ml intra-peritoneal injections scheduled at day 0 (150 mg/kg) and day 3 (100 mg/kg). Mice were subcutaneously treated with 0.2 ml of 4F-benzoyl-TN14003 (5 mg/kg) or G-CSF 5 μg/mouse or the combination of both at the indicated time points as detailed in FIG. 14A. Flow cytometery was used to assess the number of cells in the blood and bone marrow (BM) and distinguish between the different populations. Cells were gated according to forward scatter and side scatter to exclude dead cells and to determine granulocytes (GR-1 positive cells).

`N=C(N)NCCC[C@H](NC(=O)[C@@H]1CSSC[C@H](NC(=O)[C@H](Cc2ccc3ccccc3c2)NC(=O)[C@H](CCCNC(=N)N)NC(=O)[C@H](CCCNC(=N)N)NC(=O)c2ccc(F)cc2)C(=O)N[C@@H](Cc2ccc(O)cc2)C(=O)N[C@@H](CCCNC(N)=O)C(=O)N[C@@H](CCCCN)C(=O)N[C@H](CCCCN)C(=O)N2CCC[C@H]2C(=O)N[C@@H](Cc2ccc(O)cc2)C(=O)N[C@@H](CCCNC(=N)N)C(=O)N[C@@H](CCCNC(N)=O)C(=O)N1)C(N)=O` [4F-benzoyl-TN14003, 4F-benzoly-Arg-Arg-Nal-Cys-Tyr-Cit-Lys-DLys-Pro-Tyr-Arg-Cit-Cys-Arg-NH2] ({Benzoyl(4-F)}-RR[2Nal]CY[Cit]K[dK]PYR[Cit]CR-NH2; disulfide 4-13) was tested, and the “GR-1 positive cells in the blood (flow cytometry)” value was “mobilize GR-1 positive cells to the blood and reduce neutropenia” and the “relative numbers (ratio) of GR-1 positive cells in the blood and BM” value was “release cells from the inhibitory effect of the BM stroma”.
